Source: patent US9034299B2, “ATF4 inhibitors and their use for neural protection, repair, regeneration, and plasticity” (priority 2007, dated 2015)

Tests used:
Assay type in all cases: cell-based, mouse
[1] = system: embryonic cortical neurons; test: Cell viability of primary cortical neurons (MTT assay, live/dead assay)
Procedure: (§1) FIG. 1. Amino acid depletion and thapsigargin treatment induce ATF4 and protect embryonic cortical neurons from oxidative stress-induced cell death. (A) Cortical neuronal cultures (1 d in vitro) were treated with a vehicle control (shown as C), 10 mM of the glutamate analogue HCA, 1 μg/ml arginase, 1 μM thapsigargin, 1 μg/ml arginase and 10 mM HCA, or 10 mM HCA and 1 μM thapsigargin. 24 h later, cell viability was determined using the MTT assay. The graph depicts mean (compared with control)±SD calculated from three separate experiments for each group (n=25). *, P<0.05 from HCA-treated cultures by the Kruskal-Wallis test followed by Dunn's multiple comparisons test. (B) Live/dead assay of cortical neuronal cultures (2 d in vitro). Live cells were detected by uptake and trapping of calcein-AM (green fluorescence). […] Bar, 50 μm. […] Cells were harvested at the indicated time points, and nuclear extracts were separated using gel electrophoresis and immunodetected using an antibody against ATF4. YY1 was monitored as a loading control. The immunoblot is a representative example of three experiments.
(§2) FIG. 5. ATF4 has a negative impact on the neuronal glutathione metabolism. (A) ATF4^+/+ (♦) and ATF4^−/− (▴) cortical neurons were treated with 10 mM HCA. At the indicated time points, cells were trypsinized, washed, and pelleted. Reduced glutathione (GSH) was determined in the cell pellets using HPLC electrochemical detection. Data are from three separate cultures, and each data point was measured in duplicate. Graph depicts mean±SD. (B) Schematic overview over cysteine uptake and glutathione synthesis and their inhibition. (C) ATF4^+/+ and ATF4^−/− cortical neurons were treated with a vehicle control (shown as C) or 200 μM BSO. 24 h later, cell viability was determined using the MTT assay. The graph depicts mean (compared with control)±SD calculated from five separate experiments for each group (n=46 ATF4^+/+ and 58 ATF4^−/−). *, P<0.05 from untreated ATF4^+/+ cultures by the Kruskal-Wallis test followed by Dunn's multiple comparisons test. The difference between treated and untreated ATF4^−/− neurons was not significant (n.s.). (D) Live/dead assay displaying untreated and BSO-treated ATF4^+/+ and ATF4^−/− neurons. Bar, 50 μm. […] Cytoplasmic extracts were separated using gel electrophoresis and immunodetected using an antibody against γGCS. Total eIF2α was monitored as a loading control. (F) ATF4^+/+ (♦) and ATF4^−/− (▪) cortical neurons were treated with 200 μM BSO. At the indicated time points, cells were trypsinized, washed, and pelleted. GSH was determined in the cell pellets using HPLC electrochemical detection. Data are from three separate cultures, and each data point was measured in duplicate. Graph depicts mean±SD. (G) ATF4^+/+ cortical neurons were infected with GFP (♦), ATF4WT (▪), and ATF4ΔRK (▴) adenoviruses at an MOI of 100. At the indicated time points after infection, cells were trypsinized, washed, and pelleted. GSH was determined in the cell pellets using HPLC electrochemical detection. The graph depicts mean±SD calculated from three separate experiments for each group, and each data point was measured in duplicate. The value obtained from noninfected neurons was arbitrarily defined as 100%. […] The graph depicts mean (compared with control) ±SD calculated from five separate experiments for each group (n=29). *, P<0.05 from untreated neurons overexpressing ATF4WT by the Kruskal-Wallis test followed by Dunn's multiple comparisons test. […]

ATF4 = ATF4 immunoblot of nuclear extracts from cultured cortical neurons; conditions: 10 mM HCA, 1 μg/ml arginase or 1 μM thapsigargin, versus vehicle control
Procedure: as §1

[2] = system: reduced glutathione (GSH) in cortical neurons; test: Reduced glutathione (GSH) in cortical neurons by HPLC electrochemical detection; conditions: 10 mM HCA or 200 μM BSO, time course; for glutathione concentration, ATF4+/+ neurons: ATF4+/+ cortical neurons; for glutathione concentration, ATF4−/− neurons: ATF4−/− cortical neurons
Procedure: as §2, with “BSO. […]” for “BSO. At the indicated time points, cells were trypsinized, washed, and pelleted.”, “duplicate. […]” for “duplicate. Graph depicts mean±SD. (G) ATF4^+/+ cortical neurons were infected with GFP (♦), ATF4WT (▪), and ATF4ΔRK (▴) adenoviruses at an MOI of 100. At the indicated time points after infection, cells were trypsinized, washed, and pelleted.”, “duplicate.” for “duplicate. The value obtained from noninfected neurons was arbitrarily defined as 100%.”
Concentrations of reduced glutathione were measured using HPLC (PerkinElmer) equipped with an eight-channel coulometric array detector (ESA, Inc.). […] Glutathione concentrations of supernatant fractions were determined by injecting 5-μl aliquots onto an Ultrasphere 5 u, 4.6×250 mm, C18 column (Beckman Coulter), and eluting with a mobile phase of 50 mM NaH2PO4, 0.05 mM octane sulfonic acid, 1.5% acetonitrile (pH 2.62) at a flow rate of 1 ml/min. Peak areas were analyzed using software from ESA, Inc. Intracellular generation of ROS was determined by DCF. Cortical neurons were seeded in 96-well fluorescence plates. […] Cells were washed with HBSS and read on a plate reader (Fluorometer; MDS Analytical Technologies) at 485-nm excitation and 530-nm emission wavelengths.

TRB3 mRNA = test: Real-time PCR of TRB3 mRNA expression in cortical neurons; conditions: 10 mM HCA; ATF4-dependent (ATF4+/+ versus ATF4−/− neurons)

SMILES: COc1ccc(O)c(C(C)(C)C)c1 [BHA, butylated hydroxyanisol]
- neuronal viability in neurons overexpressing ATF4WT ([1]; ATF4+/+ cortical neurons infected with ATF4WT adenovirus, MOI 100, 10 μM BHA): significantly increased neuronal viability
- protection against additional HCA toxicity in neurons overexpressing ATF4WT ([1]; ATF4WT adenovirus, MOI 100, 10 μM BHA plus 10 mM HCA): protected against the additional toxic effect of HCA treatment

SMILES: C/C=C(/C)C(=O)O[C@H]1C(C)=C2[C@H]([C@@H]1OC(=O)CCCCCCC)[C@@](C)(OC(C)=O)C[C@H](OC(=O)CCC)[C@@]1(O)[C@H]2OC(=O)[C@@]1(C)O [thapsigargin]
- protection from oxidative stress-induced neuronal cell death ([1]; 10 mM HCA, 24 h, 1 μg/ml arginase or 1 μM thapsigargin, MTT and live/dead assay): nearly complete protection from neuronal cell death
- ATF4 protein expression/accumulation (ATF4): accumulation of ATF4 protein

SMILES: CCCCS(=N)(=O)CCC(N)C(=O)O (stereo not drawn) [BSO, buthionine sulfoximine]
- cell viability, ATF4+/+ neurons ([1]; 200 μM BSO, 24 h, ATF4+/+ cortical neurons): resulted in cell death
- cell viability, ATF4−/− neurons ([1]; 200 μM BSO, 24 h, ATF4−/− cortical neurons): essentially resistant
- glutathione concentration, ATF4+/+ neurons [2]: decline in the concentration of glutathione
- glutathione concentration, ATF4−/− neurons [2]: distinctly slower reduction of glutathione

SMILES: NC(CCS(=O)(=O)O)C(=O)O (stereo not drawn) [HCA, homocysteate]
- ATF4 protein expression/accumulation (ATF4): increases the expression of ATF4
- glutathione concentration, ATF4+/+ neurons [2]: progressive loss of glutathione
- glutathione concentration, ATF4−/− neurons [2]: markedly slower decline in glutathione concentration
- TRB3 mRNA expression (TRB3 mRNA): induced
